Molecular target: PIK3CD (Human) (UniProt O00329)
Experiment: Enzyme Assay

Sequence of PIK3CD (Human) (O00329 whole entry, looked up): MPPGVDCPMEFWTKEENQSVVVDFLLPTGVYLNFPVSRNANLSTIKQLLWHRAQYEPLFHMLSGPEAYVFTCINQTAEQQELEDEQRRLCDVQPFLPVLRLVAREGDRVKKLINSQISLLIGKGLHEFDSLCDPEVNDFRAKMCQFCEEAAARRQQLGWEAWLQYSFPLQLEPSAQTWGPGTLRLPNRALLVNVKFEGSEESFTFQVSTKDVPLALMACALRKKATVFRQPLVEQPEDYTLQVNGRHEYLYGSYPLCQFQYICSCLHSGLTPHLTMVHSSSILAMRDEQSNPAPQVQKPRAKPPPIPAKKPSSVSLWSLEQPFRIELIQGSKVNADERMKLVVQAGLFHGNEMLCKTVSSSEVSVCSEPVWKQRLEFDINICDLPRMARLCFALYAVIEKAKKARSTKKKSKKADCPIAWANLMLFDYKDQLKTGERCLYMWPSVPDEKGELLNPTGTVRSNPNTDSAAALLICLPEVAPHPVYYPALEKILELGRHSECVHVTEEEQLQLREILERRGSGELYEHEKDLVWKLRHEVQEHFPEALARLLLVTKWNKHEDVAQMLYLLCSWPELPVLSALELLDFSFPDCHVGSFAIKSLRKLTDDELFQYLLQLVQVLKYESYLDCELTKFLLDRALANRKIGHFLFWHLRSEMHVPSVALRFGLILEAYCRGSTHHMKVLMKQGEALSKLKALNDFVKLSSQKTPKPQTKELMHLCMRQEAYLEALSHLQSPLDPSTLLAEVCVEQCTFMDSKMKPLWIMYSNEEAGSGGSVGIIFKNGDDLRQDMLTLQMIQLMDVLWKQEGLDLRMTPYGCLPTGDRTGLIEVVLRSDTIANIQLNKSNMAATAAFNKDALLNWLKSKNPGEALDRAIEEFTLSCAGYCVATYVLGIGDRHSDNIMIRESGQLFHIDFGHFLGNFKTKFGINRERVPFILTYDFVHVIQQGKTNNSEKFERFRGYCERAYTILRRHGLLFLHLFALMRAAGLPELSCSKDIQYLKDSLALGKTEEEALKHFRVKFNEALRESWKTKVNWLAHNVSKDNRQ

| Structure (SMILES) | IC50 |
| --- | --- |
| C[C@H](Nc1nc(N)nc(N)c1C#N)c1nc2cccc(Cl)c2c(=O)n1-c1cccc(C(F)F)c1 | ≤ 1 nM |
| C[C@H](Nc1nc(N)nc(N)c1C#N)c1nc2cccc(S(C)(=O)=O)c2c(=O)n1-c1c(F)cccc1F | 1 to 10 nM |
| CC(C)C[C@H](Nc1nc(N)nc(N)c1C#N)c1nc2cccc(Cl)c2c(=O)n1-c1cccc(F)c1 | 1 to 10 nM |
| CC[C@H](Nc1nc(N)nc(N)c1C#N)c1nc2c(F)ccc(F)c2c(=O)n1-c1cccc(C#N)c1 | 10 to 50 nM |
| C[C@H](Nc1nc(N)nc(N)c1C#N)c1nc2cccc(C(F)F)c2c(=O)n1-c1cc(F)cc(F)c1 | 1 to 10 nM |
| C[C@H](Nc1nc(N)nc(N)c1C#N)c1nc2cccc(C#N)c2c(=O)n1-c1ccccc1 | 1 to 10 nM |
| C[C@H](Nc1nc(N)nc(N)c1C#N)c1nc2cccc(Cl)c2c(=O)n1-c1cccc(Cl)c1 | ≤ 1 nM |
| C[C@H](Nc1nc(N)nc(N)c1C(N)=O)c1nc2cccc(Cl)c2c(=O)n1-c1ccccc1 | ≤ 1 nM |
| C[C@H](Nc1nc(N)nc(N)c1C#N)c1nc2cc(F)c(F)cc2c(=O)n1-c1cc(F)cc(F)c1 | 10 to 50 nM |
| CC[C@H](Nc1nc(N)nc(N)c1C#N)c1nc2cccc(F)c2c(=O)n1-c1cccc(F)c1 | 1 to 10 nM |
| C[C@H](Nc1nc(N)nc(N)c1C#N)c1nc2c(C#N)cccc2c(=O)n1-c1cccc(C(F)F)c1 | 1 to 10 nM |
| C[C@H](Nc1nc(N)nc(N)c1C#N)c1nc2cccc(F)c2c(=O)n1-c1cc(Cl)cc(Cl)c1 | 10 to 50 nM |
| CC(C)C[C@H](Nc1nc(N)nc(N)c1C#N)c1nc2cccc(Cl)c2c(=O)n1-c1cccc(C#N)c1 | 10 to 50 nM |
| CC(C)C[C@H](Nc1nc(N)nc(N)c1C#N)c1nc2cccc(Cl)c2c(=O)n1-c1cc(F)cc(F)c1 | 1 to 10 nM |
| C[C@H](Nc1nc(N)nc(N)c1C#N)c1nc2cccc(Cl)c2c(=O)n1-c1cccc(C#N)c1 | 1 to 10 nM |
| CC[C@H](Nc1nc(N)nc(N)c1C#N)c1nc2ccc(F)cc2c(=O)n1-c1cccc(F)c1 | 1 to 10 nM |
| CC(C)c1cccc(-n2c([C@H](C)Nc3nc(N)nc(N)c3C#N)nc3cccc(Cl)c3c2=O)c1 | 1 to 10 nM |
| COc1cc(-n2c([C@H](C)Nc3nc(N)nc(N)c3C#N)nc3cccc(Cl)c3c2=O)ccc1F | 1 to 10 nM |
| C[C@H](Nc1nc(N)nc(N)c1C#N)c1nc2c(C#N)cccc2c(=O)n1-c1cc(F)cc(F)c1 | 1 to 10 nM |
| CC[C@H](Nc1nc(N)nc(N)c1C#N)c1nc2cccc(F)c2c(=O)n1-c1cc(F)cc(F)c1 | 1 to 10 nM |
| C[C@H](Nc1nc(N)nc(N)c1Cl)c1nc2cccc(S(C)(=O)=O)c2c(=O)n1-c1cccc(F)c1 | 1 to 10 nM |
| C[C@H](Nc1nc(N)nc(N)c1C#N)c1nc2c(F)ccc(C#N)c2c(=O)n1-c1cc(F)cc(F)c1 | 10 to 50 nM |

| Structure (SMILES) | IC50 |
| --- | --- |
| Cc1ccc(F)c2c(=O)n(-c3cc(F)cc(C#N)c3)c([C@H](C)Nc3nc(N)nc(N)c3C#N)nc12 | 10 to 50 nM |
| CC[C@H](Nc1nc(N)nc(N)c1C#N)c1nc2cccc(Cl)c2c(=O)n1-c1cc(F)cc(C(F)F)c1 | 1 to 10 nM |
| C[C@H](Nc1nc(N)nc(N)c1C#N)c1nc2c(F)ccc(F)c2c(=O)n1-c1cccc(C#N)c1 | 10 to 50 nM |
| COc1cc(-n2c([C@H](C)Nc3nc(N)nc(N)c3C#N)nc3cccc(Cl)c3c2=O)ccc1C | 10 to 50 nM |
| CC[C@H](Nc1nc(N)nc(N)c1C#N)c1nc2ccc(F)c(F)c2c(=O)n1-c1cc(F)cc(F)c1 | 10 to 50 nM |
| C[C@H](Nc1nc(N)nc(N)c1C#N)c1nc2c(C#N)cc(F)cc2c(=O)n1-c1cc(F)cc(F)c1 | 10 to 50 nM |
| Cc1ccc(F)c2nc([C@H](C)Nc3nc(N)nc(N)c3C#N)n(-c3ccccc3)c(=O)c12 | ≤ 1 nM |
| C[C@H](Nc1nc(N)nc(N)c1C#N)c1nc2cccc(C(N)=O)c2c(=O)n1-c1cc(F)cc(F)c1 | 10 to 50 nM |
| C[C@H](Nc1nc(N)nc(N)c1C#N)c1nc2ccc(F)cc2c(=O)n1-c1cccc(C#N)c1 | 10 to 50 nM |
| C[C@H](Nc1ncnc(N)c1C#N)c1nc2cccc(Cl)c2c(=O)n1-c1ccccc1 | ≤ 1 nM |
| C[C@H](Nc1nc(N)nc(N)c1C#N)c1nc2cccc(Cl)c2c(=O)n1-c1cccc(F)c1 | ≤ 1 nM |
| CC[C@H](Nc1nc(N)nc(N)c1C#N)c1nc2cccc(F)c2c(=O)n1-c1cc(F)cc(C(F)F)c1 | 10 to 50 nM |
| C[C@H](Nc1nc(N)nc(N)c1C#N)c1nc2cccc(F)c2c(=O)n1-c1cc(F)cc(F)c1 | 1 to 10 nM |
| CC[C@H](Nc1nc(N)nc(N)c1C#N)c1nc2c(Cl)cccc2c(=O)n1-c1cc(F)cc(F)c1 | 10 to 50 nM |
| C[C@H](Nc1nc(N)nc(N)c1C#N)c1cc2cccc(Cl)c2c(=O)n1-c1ccccc1 | ≤ 1 nM |
| Cc1cccc2c(=O)n(-c3cccc(C(F)(F)F)c3)c([C@H](C)Nc3nc(N)nc(N)c3C#N)nc12 | 10 to 50 nM |
| C[C@H](Nc1nc(N)nc(N)c1C#N)c1nc2c(F)ccc(C#N)c2c(=O)n1-c1ccccc1 | 1 to 10 nM |
| CC[C@H](Nc1nc(N)nc(N)c1C#N)c1nc2c(F)cc(F)cc2c(=O)n1-c1cc(F)cc(F)c1 | 10 to 50 nM |
| C[C@H](Nc1nc(N)nc(N)c1C#N)c1nc2cccc(Cl)c2c(=O)n1-c1c(F)cccc1F | 1 to 10 nM |
| CC[C@H](Nc1nc(N)nc(N)c1C#N)c1nc2c(F)ccc(F)c2c(=O)n1-c1ccccc1 | 1 to 10 nM |
| C[C@H](Nc1nc(N)nc(N)c1C#N)c1nc2c(F)cccc2c(=O)n1-c1cc(F)cc(F)c1 | 1 to 10 nM |
| C[C@H](Nc1nc(N)nc(N)c1C#N)c1nc2c(C(F)F)cccc2c(=O)n1-c1ccccc1 | 10 to 50 nM |

| Structure (SMILES) | IC50 |
| --- | --- |
| C[C@H](Nc1nc(N)nc(N)c1C#N)c1nc2cccc(Cl)c2c(=O)n1-c1cc(Cl)cc(C(F)F)c1 | 1 to 10 nM |
| C[C@H](Nc1nc(N)nc(N)c1C#N)c1nc2cccc(Cl)c2c(=O)n1-c1cc(F)cc(C(F)(F)F)c1 | 1 to 10 nM |
| C[C@H](Nc1nc(N)nc(N)c1C#N)c1nc2c(F)ccc(Cl)c2c(=O)n1-c1cc(F)cc(C#N)c1 | 10 to 50 nM |
| C[C@H](Nc1nc(N)nc(N)c1C#N)c1nc2ccc(F)c(Cl)c2c(=O)n1-c1cc(F)cc(C(F)F)c1 | 10 to 50 nM |
| C[C@H](Nc1nc(N)nc(N)c1C#N)c1nc2cccc(F)c2c(=O)n1-c1cccc(C(F)(F)F)c1 | 1 to 10 nM |
| C[C@H](Nc1nc(N)nc(N)c1C#N)c1nc2cccc(Cl)c2c(=O)n1-c1cc(F)cc(F)c1 | ≤ 1 nM |
| C[C@H](Nc1nc(N)nc(N)c1Cl)c1nc2c(F)ccc(Cl)c2c(=O)n1-c1ccccc1 | 1 to 10 nM |
| C[C@H](Nc1nc(N)nc(N)c1C#N)c1nc2ccc(F)cc2c(=O)n1-c1ccccc1 | 1 to 10 nM |
| Cc1cccc2c(=O)n(-c3ccccc3)c([C@H](C)Nc3nc(N)nc(N)c3C#N)nc12 | 1 to 10 nM |
| C[C@H](Nc1nc(N)nc(N)c1C#N)c1nc2c(C(F)F)cccc2c(=O)n1-c1cc(F)cc(F)c1 | 10 to 50 nM |
| C[C@H](Nc1ncnc(N)c1C#N)c1nc2cccc(Cl)c2c(=O)n1-c1cc(F)cc(F)c1 | 1 to 10 nM |
| C[C@H](Nc1nc(N)nc(N)c1C(N)=O)c1nc2cccc(Cl)c2c(=O)n1-c1cccc(C(F)F)c1 | 1 to 10 nM |
| C[C@H](Nc1nc(N)nc(N)c1C#N)c1nc2c(C#N)cc(F)cc2c(=O)n1-c1ccccc1 | 1 to 10 nM |
| C[C@H](Nc1nc(N)nc(N)c1C#N)c1nc2ccc(F)c(Cl)c2c(=O)n1-c1cc(F)cc(F)c1 | 1 to 10 nM |
| C[C@H](Nc1nc(N)nc(N)c1C#N)c1nc2cccc(O)c2c(=O)n1-c1ccccc1 | ≤ 1 nM |
| C[C@H](Nc1nc(N)nc(N)c1C#N)c1nc2cccc(Cl)c2c(=O)n1-c1cccc(C(F)(F)F)c1 | 1 to 10 nM |
| CCc1cccc2c(=O)n(-c3cc(F)cc(F)c3)c([C@H](C)Nc3nc(N)nc(N)c3C#N)nc12 | 10 to 50 nM |
| COc1cc(F)cc(-n2c([C@H](C)Nc3nc(N)nc(N)c3C#N)nc3cccc(Cl)c3c2=O)c1 | 1 to 10 nM |
| C[C@H](Nc1nc(N)nc(N)c1C#N)c1nc2ccc(F)c(Cl)c2c(=O)n1-c1cccc(C#N)c1 | 10 to 50 nM |
| C[C@H](Nc1nc(N)nc(N)c1C#N)c1nc2ccc(F)c(F)c2c(=O)n1-c1cc(F)cc(F)c1 | 10 to 50 nM |
| C[C@H](Nc1nc(N)nc(N)c1C#N)c1nc2cccc(C#N)c2c(=O)n1-c1cc(F)cc(F)c1 | 1 to 10 nM |
| C[C@H](Nc1nc(N)nc(N)c1C#N)c1nc2cccc(Cl)c2c(=O)n1-c1cc(Cl)cc(Cl)c1 | 1 to 10 nM |

| Structure (SMILES) | IC50 |
| --- | --- |
| C[C@H](Nc1nc(N)nc(N)c1C#N)c1nc2c(F)ccc(Cl)c2c(=O)n1-c1cc(F)cc(F)c1 | ≤ 1 nM |
| C[C@H](Nc1nc(N)nc(N)c1C#N)c1nc2cccc(F)c2c(=O)n1-c1cc(F)cc(Cl)c1 | 10 to 50 nM |
| C[C@H](Nc1nc(N)nc(N)c1C#N)c1nc2cccc(S(C)(=O)=O)c2c(=O)n1-c1cc(F)cc(F)c1 | 1 to 10 nM |
| C[C@H](Nc1nc(N)nc(N)c1C#N)c1nc2cccc(F)c2c(=O)n1-c1cc(F)cc(C#N)c1 | 10 to 50 nM |
| COC[C@@H](Nc1nc(N)nc(N)c1C#N)c1nc2cccc(Cl)c2c(=O)n1-c1cc(F)cc(F)c1 | 1 to 10 nM |
| Cc1ccc(F)c2c(=O)n(-c3cccc(C#N)c3)c([C@H](C)Nc3nc(N)nc(N)c3C#N)nc12 | 10 to 50 nM |
| C[C@H](Nc1nc(N)nc(N)c1C#N)c1nc2c(F)cccc2c(=O)n1-c1ccccc1 | 1 to 10 nM |
| C[C@H](Nc1nc(N)nc(N)c1C(N)=O)c1nc2cccc(Cl)c2c(=O)n1-c1cc(F)cc(F)c1 | 1 to 10 nM |
| CC[C@H](Nc1nc(N)nc(N)c1C#N)c1nc2ccc(F)cc2c(=O)n1-c1cc(F)cc(F)c1 | 10 to 50 nM |
| C[C@H](Nc1nc(N)nc(N)c1C#N)c1nc2cccc(C(F)F)c2c(=O)n1-c1cc(F)cc(C(F)F)c1 | 1 to 10 nM |
| C[C@H](Nc1nc(N)nc(N)c1C#N)c1nc2cccc(F)c2c(=O)n1-c1cc(F)cc(C(F)F)c1 | 10 to 50 nM |
| Cc1ccc(F)c2c(=O)n(-c3ccccc3)c([C@H](C)Nc3nc(N)nc(N)c3C#N)nc12 | 1 to 10 nM |
| C[C@H](Nc1nc(N)nc(N)c1C#N)c1nc2c(C#N)cc(F)cc2c(=O)n1-c1cccc(F)c1 | 1 to 10 nM |
| C[C@H](Nc1nc(N)nc(N)c1Cl)c1cc2cccc(Cl)c2c(=O)n1-c1ccccc1 | ≤ 1 nM |
| C[C@H](Nc1nc(N)nc(N)c1C#N)c1nc2ccc(F)cc2c(=O)n1-c1cc(F)cc(F)c1 | 1 to 10 nM |
| C[C@H](Nc1nc(N)nc(N)c1C#N)c1nc2cccc(C(F)F)c2c(=O)n1-c1cccc(C#N)c1 | 1 to 10 nM |
| C[C@H](Nc1nc(N)nc(N)c1C#N)c1nc2c(Cl)cccc2c(=O)n1-c1ccccc1 | 1 to 10 nM |
| C[C@H](Nc1nc(N)nc(N)c1C#N)c1nc2cccc(Cl)c2c(=O)n1-c1cccc(CC(F)F)c1 | 1 to 10 nM |
| C[C@H](Nc1nc(N)nc(N)c1C#N)c1nc2cccc(S(C)(=O)=O)c2c(=O)n1-c1cccc(C(F)F)c1 | 1 to 10 nM |

Source: the Kinase Knowledgebase extract (Sharma et al. 2016)
